#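 1) Cells in 96-well plates. 2) Compound, 48 h, 5 concentrations. 3) Linear interpolation between surrounding doses. 4) Unreached endpoint = highest concentration. At the GI50, growth is halved.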 Active and inactive are the calls of the source. Cut-off read from the data, not from the text of the source: active = GI50 up to about 1.1 µM and inactive = higher.
# Legend:
# Experiment in all cases: inhibition of tumour cell growth, NCI panel, 48 h
# [1] = test system: HOP-62
# [2] = test system: HCC 2998
# [3] = test system: RXF 393
# [4] = test system: SK-MEL-28
# [5] = test system: ACHN
# [6] = test system: IGROV-1
# [7] = test system: HOP-92
# [8] = test system: HCT-116
# [9] = test system: A498
# [10] = test system: SW-620
# [11] = test system: K562
# [12] = test system: HCT-15
# [13] = test system: RPMI-8226
# [14] = test system: NCI-H226
# [15] = test system: SNB-19
# [16] = test system: SF-268
# [17] = test system: M14
# [18] = test system: SF-295
# [19] = test system: UACC-257
# [20] = test system: Malme-3M
Compound,GI50 [1],GI50 [2],GI50 [3],GI50 [4],GI50 [5],GI50 [6],GI50 [7],GI50 [8],GI50 [9],GI50 [10],GI50 [11],GI50 [12],GI50 [13],GI50 [14],GI50 [15],GI50 [16],GI50 [17],GI50 [18],GI50 [19],GI50 [20]
C=C1COC(/C=C(\C)CC/C=C(\C)CCl)C1 (stereo unspecified),> 100 µM (inactive),> 100 µM (inactive),> 100 µM (inactive),> 100 µM (inactive),> 100 µM (inactive),> 100 µM (inactive),35.1 µM (inactive),> 100 µM (inactive),> 100 µM (inactive),> 100 µM (inactive),> 100 µM (inactive),> 100 µM,> 100 µM (inactive),> 100 µM (inactive),> 100 µM (inactive),> 100 µM (inactive),> 100 µM (inactive),> 100 µM (inactive),–,–
COc1ccc(OCC(C)(C)O)cc1,> 100 µM (inactive),> 100 µM (inactive),> 100 µM (inactive),> 100 µM (inactive),–,> 100 µM (inactive),> 100 µM (inactive),> 100 µM (inactive),> 100 µM (inactive),> 100 µM (inactive),> 100 µM (inactive),> 100 µM,> 100 µM (inactive),> 100 µM (inactive),> 100 µM (inactive),> 100 µM (inactive),–,> 100 µM (inactive),> 100 µM (inactive),> 100 µM (inactive)
COC(=O)Cc1c([C@H]2[C@H](CC(=O)OC)c3ccccc3N2C(=O)C(F)(F)F)[nH]c2ccccc12,29 µM (inactive),32.1 µM (inactive),20 µM (inactive),34.5 µM (inactive),29.8 µM (inactive),2.83 µM (inactive),32.3 µM (inactive),15.5 µM (inactive),90.2 µM (inactive),32.4 µM (inactive),11.1 µM (inactive),8.18 µM,17.7 µM (inactive),2 µM (inactive),54.3 µM (inactive),27.4 µM (inactive),–,18.1 µM (inactive),29.1 µM (inactive),29.9 µM (inactive)
COc1ccc(C(C2C(=O)N(C)C(=O)N(C)C2=O)C(F)(F)C(=O)N(C)C)cc1 (stereo unspecified),> 100 µM (inactive),> 100 µM (inactive),> 100 µM (inactive),> 100 µM (inactive),> 100 µM (inactive),–,> 100 µM (inactive),> 100 µM (inactive),> 100 µM (inactive),> 100 µM (inactive),–,> 100 µM,> 100 µM (inactive),> 100 µM (inactive),> 100 µM (inactive),> 100 µM (inactive),> 100 µM (inactive),> 100 µM (inactive),> 100 µM (inactive),> 100 µM (inactive)
O=C1/C(=C/c2ccc(Oc3ccccc3)cc2)N=C(c2ccccc2)N1c1ccc(S(=O)(=O)Nc2nccs2)cc1,14.9 µM (inactive),1.56 µM (inactive),17 µM (inactive),22.8 µM (inactive),37.2 µM (inactive),–,6.78 µM (inactive),10.7 µM (inactive),18.1 µM (inactive),13.9 µM (inactive),7.48 µM (inactive),8.07 µM,6.34 µM (inactive),33.4 µM (inactive),35.3 µM (inactive),36.8 µM (inactive),15.3 µM (inactive),22.8 µM (inactive),21.3 µM (inactive),19.1 µM (inactive)
O=C1N(C2CCCCC2)CC12CCCCC2,> 100 µM (inactive),> 100 µM (inactive),> 100 µM (inactive),> 100 µM (inactive),> 100 µM (inactive),> 100 µM (inactive),> 100 µM (inactive),> 100 µM (inactive),> 100 µM (inactive),> 100 µM (inactive),> 100 µM (inactive),> 100 µM,> 100 µM (inactive),> 100 µM (inactive),> 100 µM (inactive),> 100 µM (inactive),> 100 µM (inactive),–,–,> 100 µM (inactive)
CCCOC1OC(CS(=O)(=O)O)C(O)C(O)C1O (stereo unspecified),> 100 µM (inactive),> 100 µM (inactive),> 100 µM (inactive),> 100 µM (inactive),–,> 100 µM (inactive),> 100 µM (inactive),> 100 µM (inactive),> 100 µM (inactive),> 100 µM (inactive),> 100 µM (inactive),> 100 µM,> 100 µM (inactive),> 100 µM (inactive),> 100 µM (inactive),–,> 100 µM (inactive),> 100 µM (inactive),> 100 µM (inactive),> 100 µM (inactive)
COc1cc(C2C(C(=O)NCc3ccccc3)=C(C)NC(C)=C2C(=O)NCc2ccccc2)ccc1O,–,23.6 µM (inactive),28.8 µM (inactive),34.5 µM (inactive),42.5 µM (inactive),34.4 µM (inactive),31.4 µM (inactive),44.7 µM (inactive),84.9 µM (inactive),37.5 µM (inactive),30.8 µM (inactive),27.6 µM,23 µM (inactive),37.9 µM (inactive),29.9 µM (inactive),34.9 µM (inactive),34.4 µM (inactive),46 µM (inactive),44.1 µM (inactive),> 100 µM (inactive)
CCCCCCc1cc2cc(C(=O)Nc3nc(C45CC6CC(CC(C6)C4)C5)cs3)c(=O)oc2cc1O,18.1 µM (inactive),8.15 µM (inactive),8.24 µM (inactive),29.3 µM (inactive),4.43 µM (inactive),10.4 µM (inactive),4.93 µM (inactive),3.56 µM (inactive),13.6 µM (inactive),19 µM (inactive),2.31 µM (inactive),3.85 µM,11.2 µM (inactive),19.1 µM (inactive),12.3 µM (inactive),9.57 µM (inactive),–,4.06 µM (inactive),24.6 µM (inactive),19.7 µM (inactive)
S=P1(N2CCCCC2)Oc2ccc3ccccc3c2-c2c(ccc3ccccc23)O1,> 100 µM (inactive),> 100 µM (inactive),> 89.7 µM (inactive),> 100 µM (inactive),–,> 100 µM (inactive),92.9 µM (inactive),> 82.2 µM (inactive),> 35.2 µM (inactive),> 100 µM (inactive),85.7 µM (inactive),63.7 µM,> 91.2 µM (inactive),> 54.2 µM (inactive),> 100 µM (inactive),> 82.2 µM (inactive),–,53.7 µM (inactive),> 100 µM (inactive),> 46 µM (inactive)
C(=C/c1nc2ccccc2o1)/c1ccc2c(c1)OCO2,16.2 µM (inactive),6.32 µM (inactive),14.7 µM (inactive),24.9 µM (inactive),–,16.1 µM (inactive),13.2 µM (inactive),12.3 µM (inactive),21.8 µM (inactive),16.7 µM (inactive),5.22 µM (inactive),8.18 µM,26.4 µM (inactive),18 µM (inactive),16.1 µM (inactive),19.8 µM (inactive),–,8.04 µM (inactive),12.7 µM (inactive),27.3 µM (inactive)
O=CNCNCCO,> 100 µM (inactive),> 100 µM (inactive),> 100 µM (inactive),> 100 µM (inactive),> 100 µM (inactive),> 100 µM (inactive),> 100 µM (inactive),> 100 µM (inactive),> 100 µM (inactive),46 µM (inactive),> 100 µM (inactive),> 100 µM,31.7 µM (inactive),> 100 µM (inactive),> 100 µM (inactive),> 100 µM (inactive),> 100 µM (inactive),–,–,> 100 µM (inactive)
Cc1ccc(N2Cc3c(ccc4ccccc34)OP2(=O)Oc2ccc(Cl)c(C)c2)cc1 (stereo unspecified),> 100 µM (inactive),> 100 µM (inactive),> 79.4 µM (inactive),> 100 µM (inactive),–,> 100 µM (inactive),50 µM (inactive),26.1 µM (inactive),81.5 µM (inactive),> 81.8 µM (inactive),> 100 µM (inactive),13.8 µM,10 µM (inactive),> 100 µM (inactive),> 100 µM (inactive),> 100 µM (inactive),–,> 51.2 µM (inactive),> 100 µM (inactive),> 100 µM (inactive)
C(=C\Nc1ccc(Oc2ccccc2)cc1)/C=N/c1ccc(Oc2ccccc2)cc1,20.7 µM (inactive),15.9 µM (inactive),20 µM (inactive),16.6 µM (inactive),19.6 µM (inactive),17.1 µM (inactive),24.3 µM (inactive),17.4 µM (inactive),16.2 µM (inactive),19 µM (inactive),22.5 µM (inactive),19.5 µM,21.8 µM (inactive),55.3 µM (inactive),17.3 µM (inactive),21 µM (inactive),–,15.9 µM (inactive),17.1 µM (inactive),17.1 µM (inactive)
Cc1nc2ccc(S(=O)(=O)Nc3nccs3)cc2c(=O)n1NS(=O)(=O)c1nccs1,> 100 µM (inactive),> 100 µM (inactive),> 100 µM (inactive),> 100 µM (inactive),32 µM (inactive),> 100 µM (inactive),> 100 µM (inactive),–,> 100 µM (inactive),78.3 µM (inactive),69.7 µM (inactive),> 100 µM,> 100 µM (inactive),> 100 µM (inactive),> 100 µM (inactive),> 100 µM (inactive),> 100 µM (inactive),58.7 µM (inactive),> 100 µM (inactive),> 100 µM (inactive)

# — ChEMBL document CHEMBL1201862, “PubChem BioAssay data set” (2004)
